In US20170143674A1, “Use of Glutaryl Histamine for the Treatment of Respiratory Tract Diseases” (LTD "VALENTA-INTELLEKT", priority 2011, published 2017):
Where two headings read alike, the source gives them in different places. Marks after values point to notes of the source that are not given here.

Key:
[1] = tested on: acute rhinosinusitis induced by intranasal administration of formalin; format: in vivo, rat
Method: Activity of glutaryl histamine was studied in an experimental model of acute rhinosinusitis (ARS).
Administration of 20 μl of 7.5% formalin to the rat nasal passages leads to the development of a clinical picture similar to the symptoms of acute rhinosinusitis in a human.
The tested medicament and reference medicaments were administered for 7 days after administration of 7.5% formalin. Normal saline solution was used as placebo. The animals were subjected to euthanasia on day 8 after induction of experimental acute rhinosinusitis by method of air embolism. During necropsy, nasal passages of all animals were sampled. The obtained material was placed into 10% neutral-buffered formalin for further histological analysis.
The mucous and submucous membranes of both nasal passages (respiratory and olfactory regions) of the experimental animals were subjected to a morphological analysis of the specific activity of glutaryl histamine.
After the clinical phase of the experiment, the material derived from the animals was subjected to the standard treatment to prepare histological paraffin sections with a thickness of 3 to 5 μm. The sections were stained with hematoxylin and eosin for a microscopic study. Comparison and histological analysis of changes were performed versus the group of intact rats.
The main pathological processes inherent in experimental acute rhinosinusitis, such as vascular congestion in mucous membrane, hyperplasia and necrosis of the epithelium, the number of caliciform cells within 1 mm of the mucous membrane in the nasal septum, were evaluated by a semi-quantitative method to evaluate the degree of pathophysiological changes in histological, histochemical and morphological studies.
The microscopic analysis of exudative disorder developed in rats with acute rhinitis was aimed at measuring the number of caliciform cells comprising acidic mucus (Table 3).

[2] = tested on: LPS-induced tonsillitis; test: LPS-induced tonsillitis model (E. coli LPS into cervical lymph node); format: in vivo; conditions: Diclofenac (11 mg/kg)
Method: This example is aimed at evaluating the activity of glutaryl histamine on experimental model of tonsillitis. LPS-induced tonsillitis is one of the most adequate models for the study of the pathogenesis, pathomorphological changes and action of pharmacological medicaments on the course of this disease.
Tonsillitis was induced under anesthesia by administration of a solution of E. coli lipopolysaccharide (LPS) (Sigma) in normal physiological solution in a dose of 20 μg/kg, by 10 μl to the right upper lymph node (Inn. Cervicales superficiales). After administration, the lymph nodes were put under superficial neck muscles and then the skin was stitched. The wound was treated with streptocide. The animal was placed into a post-operation cage.
The tested medicament was administered once daily in a given dose strictly at the stated time for three days before the induction of tonsillitis and 10 days after. Normal saline solution was used as placebo.
Immediately after euthanasia, the animals were subjected to necropsy, the affected and intact lymph nodes were removed and weighed.
The lymph nodes derived from the half of animals from each group were being frozen after removal in a refrigerating chamber at −25° C. for 72 hours. Then the lymph nodes were lyophilized.
In a half of animals from each group (7), the affected lymph nodes were subjected to histological analysis. After euthanasia, intact and affected lymph nodes were removed from each animal. […] Sections with a thickness of 4 to 6 μm were prepared from the paraffin blocks, stained with hematoxylin and eosin to reveal typical pathological processes and study required parameters using light-optical microscope Leica DM LS (magnification 200× and 400×).
Weights of intact and affected lymph nodes were compared and the nodes also were lyophilized to evaluate an effect of the medicaments on the swelling degree and adequacy of the model of tonsillitis.
The protein-synthetic function of the liver and a systemic effect of the medicaments on organism were evaluated in total protein (TP) analysis.

[3] = tested on: Staphylococcus aureus (mouse-adapted strain 10); test: animal or person; format: in vivo, mice
Method: The tested medicament was glutaryl histamine in doses of 15, 30 and 45 mg/kg. Solutions of the tested medicament for oral administration were prepared ex tempore. Levofloxacin (in oral administration) was used as a therapeutic preparation since this substance was the most experimentally studied antibiotic approved in clinical practice many years ago.
Staphylococcus aureus (mouse-adaptedstrain 10) was used as an infectious agent. Mice were infected intravenously.
(§1) Firstly, there was determined a lethal dose (LD100) of staphylococcus to be intravenously administered to this line of mice having a certain weight. Fatal cases among mice were registered every day for ten days. The lethal dose was 3×10^8 CFU/mouse. […] For this purpose, mice were housed into cages (10 animals per cage) and infected with a lethal dose of staphylococcus. One hour after each mouse was administered orally levofloxacin in doses of 1, 2, 4, 6, 8, 10, and 12 mg/kg. A group of mice infected with a lethal dose of staphylococcus without the treatment was considered as a control group. Fatal cases among mice were registered every day for ten days.
The next step of the experiment was to study an effect of combined administration of glutaryl histamine and levofloxacin on a model of staphylococcal sepsis in mice.
(§2) In the experiment, mice were housed in following groups (10 animals per cage):
(§3) Glutaryl histamine was administered orally in the corresponding doses to the mice of groups 3, 4, 5, 6, 7, and 8 for 5 days. Five day after, all groups of mice were intravenously administered with 0.2 ml of Staphylococcus aureus in the lethal dose. […] After infection and administration of levofloxacin, glutaryl histamine was administered to mice of groups 3-8 for additional 5 days. During the experiment, the animals were observed every day, and fatal cases were registered (see Table 13).

[4] = tested on: Escherichia coli (mouse-adapted strain 4300); test: animal or person; format: in vivo, mice
Method: Escherichia coli (mouse-adaptedstrain 4300, Institute collection) was used as an infectious agent. Mice were infected intravenously.
as §1, with “there were” for “there was”, “of Escherichia coli” for “of staphylococcus”, “mice with” for “mice having”, “days.” for “days. The lethal dose was 3×10^8 CFU/mouse.”, “of Escherichia coli.” for “of staphylococcus.”
The next step of the experiment was to study an effect of combined administration of glutaryl histamine and levofloxacin on a model of E. coli sepsis in mice.
as §2
as §3, with “to” for “to the”, “administered” for “administered with”, “Escherichia coli” for “Staphylococcus aureus”, “14).” for “13).”

[5] = tested on: Staphylococcus aureus (mouse-adapted MRSA strain 5); test: animal or person; format: in vivo, mice
Method: Tested medicament was glutaryl histamine in doses of 15, 30 and 45 mg/kg. Solutions of the tested medicament for oral administration were prepared ex tempore in stream water. Ampicillin (in intravenous administration) was used as a therapeutic preparation since it is the most experimentally studied antibiotic approved in clinical practice many years ago. Levofloxacin was used as a positive control (in oral administration).
Staphylococcus aureus was used as an infectious agent (mouse-adapted MRSA strain 5, collection from GU NIINA im.G.F. Gauze RAMN).
Firstly, there was determined a lethal dose (LD100) of staphylococcus when intravenously administered to this line of mice with a certain weight. Fatal cases among mice were registered every day for ten days. […] After that, there was determined the dose of ampicillin providing a survival rate of 20% of mice infected with staphylococcus MRSA taken in a lethal dose. For this purpose, mice were housed into cages by 10 animals and infected with a lethal dose of staphylococcus. One hour later, each mouse was intravenously administered ampicillin in doses of 30, 60, 90, 120, 150, and 180 mg/kg. A group of mice infected with a lethal dose of staphylococcus without the treatment was considered as a control group. Fatal cases among mice were registered every day for ten days.
The next step of the experiment was to study an effect of combined administration of glutaryl histamine with ampicilline on a model of MRSA-induced staphylococcal sepsis in mice.
In the experiment, the mice were housed in following groups of 10 animals per cage: […]

[6] = Diclofenac 11 mg/kg, n = 10, listed as diclofenac
[7] = levofloxacin 2.65 mg/kg, tenth day
[8] = levofloxacin 20 mg/kg, tenth day
[9] = group 3: levofloxacin 4 mg/ml per os one time

## O=C(O)Cc1ccccc1Nc1c(Cl)cccc1Cl [Diclofenac, diclofenac, reference compound]
[1]; Diclofenac 11 mg/kg, n = 10
  Mucopurulent catarrh (number of rats): 7
  Mucous catarrh (number of rats): 3
  Without changes (number of rats, mucous membrane in the nasal passages, macroscopic): 0
[1]; [6]
  Mucopurulent catarrh (number of rats): four
  Mucous catarrh (number of rats): three
[1]; Diclofenac (11 mg/kg), M ± m
  The number of caliciform cells within 1 mm of the mucosal membrane of the nasal septum: 31.8 ± 1.9* **
[2]
  Mortality rate (%): 29%
  The number of died animals/initial number of animals in a group: 4/14
[2]; M ± m
  Area of germinal centers of lymphoid follicles in affected lymph nodes: 0.074 ± 0.007* mm^2
  Weight difference between affected and intact lymph nodes: 16.3 ± 1.4 mg

## C[C@H]1COc2c(N3CCN(C)CC3)c(F)cc3c(=O)c(C(=O)O)cn1c23 [levofloxacin, reference compound]
[3]; Staphylococcus aureus, po, read-out: ED50 (50% effective dose)
  ED50: 2.65 mg/kg
[3]; day 1, levofloxacin 2.65 mg/kg
  died/survived animals: 0/10
[3]; day 2, levofloxacin 2.65 mg/kg
  died/survived animals: 0/10
[3]; day 3, levofloxacin 2.65 mg/kg
  died/survived animals: 1/9
[3]; day 4, levofloxacin 2.65 mg/kg
  died/survived animals: 2/8
[3]; day 5, levofloxacin 2.65 mg/kg
  died/survived animals: 4/6
[3]; day 6, levofloxacin 2.65 mg/kg
  died/survived animals: 4/6
[3]; day 7, levofloxacin 2.65 mg/kg
  died/survived animals: 4/6
[3]; day 8, levofloxacin 2.65 mg/kg
  died/survived animals: 5/5
[3]; day 9, levofloxacin 2.65 mg/kg
  died/survived animals: 5/5
[3]; day 10, levofloxacin 2.65 mg/kg
  died/survived animals: 5/5
[3]; [7]
  Mortality rate (%): 50%
  Survival rate (%): 50%
[4]; Escherichia coli, po, read-out: ED50 (50% effective dose)
  ED50: 2.97 mg/kg
[4]; day 1, levofloxacin 20 mg/kg
  died/survived animals: 0/10
[4]; day 2, levofloxacin 20 mg/kg
  died/survived animals: 0/10
[4]; day 3, levofloxacin 20 mg/kg
  died/survived animals: 0/10
[4]; day 4, levofloxacin 20 mg/kg
  died/survived animals: 1/9
[4]; day 5, levofloxacin 20 mg/kg
  died/survived animals: 2/8
[4]; day 6, levofloxacin 20 mg/kg
  died/survived animals: 3/7
[4]; day 7, levofloxacin 20 mg/kg
  died/survived animals: 4/6
[4]; day 8, levofloxacin 20 mg/kg
  died/survived animals: 5/5
[4]; day 9, levofloxacin 20 mg/kg
  died/survived animals: 5/5
[4]; day 10, levofloxacin 20 mg/kg
  died/survived animals: 5/5
[4]; [8]
  Mortality rate (%): 50%
  Survival rate (%): 50%
[5]; Staphylococcus aureus, MRSA, po
  ED50: 4 mg/kg
[5]; day 1, group 3: levofloxacin 4 mg/ml per os one time
  died/survived animals: 0/10
[5]; day 2, group 3: levofloxacin 4 mg/ml per os one time
  died/survived animals: 0/10
[5]; day 3, group 3: levofloxacin 4 mg/ml per os one time
  died/survived animals: 0/10
[5]; day 4, group 3: levofloxacin 4 mg/ml per os one time
  died/survived animals: 1/9
[5]; day 5, group 3: levofloxacin 4 mg/ml per os one time
  died/survived animals: 2/8
[5]; day 6, group 3: levofloxacin 4 mg/ml per os one time
  died/survived animals: 3/7
[5]; day 7, group 3: levofloxacin 4 mg/ml per os one time
  died/survived animals: 4/6
[5]; day 8, group 3: levofloxacin 4 mg/ml per os one time
  died/survived animals: 5/5
[5]; day 9, group 3: levofloxacin 4 mg/ml per os one time
  died/survived animals: 5/5
[5]; day 10, group 3: levofloxacin 4 mg/ml per os one time
  died/survived animals: 5/5
[5]; [9]
  Mortality rate (%): 50%
  Survival rate (%): 50%
